Read-outs that look alike come from different tables or passages of the source.
Key:
[1] = target: T1, FL-SMARCA2 (full-length human SMARCA2 isoform 1) (Homo sapiens, UniProt P51531); assay: SMARCA2 ATPase activity assay (ADP-Glo, chicken mononucleosome substrate); type: biochemical; settings: ATP 250 uM
T1 construct: FLAG tag (YKDDDDK) (C); made in house; host or cells: Sf21 insect cells (baculovirus, pFastBacI)

FL-SMARCA4 = FL-SMARCA4 (Homo sapiens, UniProt P51532); assay: SMARCA4 ATPase activity assay (ADP-Glo, chicken mononucleosome substrate)
Sequence of FL-SMARCA4 (P51532 whole entry): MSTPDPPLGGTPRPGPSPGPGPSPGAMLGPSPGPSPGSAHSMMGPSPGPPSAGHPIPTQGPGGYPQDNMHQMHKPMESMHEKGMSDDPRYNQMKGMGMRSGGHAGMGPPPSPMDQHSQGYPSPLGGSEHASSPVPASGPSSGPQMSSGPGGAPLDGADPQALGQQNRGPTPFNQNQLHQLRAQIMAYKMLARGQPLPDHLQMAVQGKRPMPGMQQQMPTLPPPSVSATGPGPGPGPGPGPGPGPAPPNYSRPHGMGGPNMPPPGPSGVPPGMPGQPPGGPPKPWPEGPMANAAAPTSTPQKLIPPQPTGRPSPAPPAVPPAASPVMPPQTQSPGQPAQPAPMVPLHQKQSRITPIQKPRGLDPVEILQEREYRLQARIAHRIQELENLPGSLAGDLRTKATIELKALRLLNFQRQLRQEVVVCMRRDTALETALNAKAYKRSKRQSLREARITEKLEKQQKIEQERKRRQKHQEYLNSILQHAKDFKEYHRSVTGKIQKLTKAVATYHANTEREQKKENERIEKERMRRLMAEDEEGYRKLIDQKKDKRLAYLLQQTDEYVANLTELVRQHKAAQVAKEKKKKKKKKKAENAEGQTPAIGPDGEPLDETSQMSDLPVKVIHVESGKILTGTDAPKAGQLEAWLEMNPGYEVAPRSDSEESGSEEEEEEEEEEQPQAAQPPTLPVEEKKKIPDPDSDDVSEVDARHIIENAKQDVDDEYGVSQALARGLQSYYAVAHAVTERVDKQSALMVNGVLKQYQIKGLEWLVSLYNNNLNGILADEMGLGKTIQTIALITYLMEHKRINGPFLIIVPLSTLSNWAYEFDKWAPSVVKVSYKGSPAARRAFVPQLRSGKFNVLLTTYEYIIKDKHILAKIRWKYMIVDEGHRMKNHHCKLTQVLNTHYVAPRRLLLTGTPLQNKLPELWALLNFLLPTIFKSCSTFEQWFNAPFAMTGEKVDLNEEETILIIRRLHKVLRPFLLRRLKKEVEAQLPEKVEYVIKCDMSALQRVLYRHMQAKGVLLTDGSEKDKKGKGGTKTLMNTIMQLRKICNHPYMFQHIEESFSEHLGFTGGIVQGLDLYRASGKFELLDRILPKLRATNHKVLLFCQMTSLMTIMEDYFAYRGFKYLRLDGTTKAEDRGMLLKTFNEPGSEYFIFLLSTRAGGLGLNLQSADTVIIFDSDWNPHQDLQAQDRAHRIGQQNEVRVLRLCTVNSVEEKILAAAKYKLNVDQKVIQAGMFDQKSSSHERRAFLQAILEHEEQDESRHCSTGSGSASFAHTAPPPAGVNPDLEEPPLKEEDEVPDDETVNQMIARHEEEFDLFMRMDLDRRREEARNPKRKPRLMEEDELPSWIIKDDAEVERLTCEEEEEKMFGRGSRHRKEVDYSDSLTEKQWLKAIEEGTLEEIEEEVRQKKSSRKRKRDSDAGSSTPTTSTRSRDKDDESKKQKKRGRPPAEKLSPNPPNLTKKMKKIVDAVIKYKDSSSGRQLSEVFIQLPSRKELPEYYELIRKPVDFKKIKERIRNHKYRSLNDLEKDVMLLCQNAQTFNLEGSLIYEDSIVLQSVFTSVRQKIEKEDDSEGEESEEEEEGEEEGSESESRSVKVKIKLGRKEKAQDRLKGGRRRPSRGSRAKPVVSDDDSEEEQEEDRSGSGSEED

[2] = Table 3a.1, SMARCA2 5 nM, mononucleosome 10 nM
[3] = FL-SMARCA4 IC50, Table 3a.2, SMARCA4 5 nM, ATP 250 uM, mononucleosome 10 nM
[4] = Table 3c.1, ATPase assay, enzyme 5 nM, chicken mononucleosome 10 nM, 30 min preincubation
[5] = FL-SMARCA4 IC>50, Table 3c.2, ATPase assay, enzyme 5 nM, ATP 250 uM, chicken mononucleosome 10 nM, 30 min preincubation
[6] = Table 3d.1, ATPase assay, enzyme 5 nM, chicken mononucleosome 10 nM, 30 min preincubation, read-out: FL-SMARCA2 IC>50
[7] = Table 3.1, ATPase assay, enzyme 5 nM, chicken mononucleosome 10 nM, 30 min preincubation
[8] = FL-SMARCA4 IC50, Table 3.2, ATPase assay, enzyme 5 nM, ATP 250 uM, chicken mononucleosome 10 nM, 30 min preincubation

T1 sequence (P51531 with tags, fused parts or gaps): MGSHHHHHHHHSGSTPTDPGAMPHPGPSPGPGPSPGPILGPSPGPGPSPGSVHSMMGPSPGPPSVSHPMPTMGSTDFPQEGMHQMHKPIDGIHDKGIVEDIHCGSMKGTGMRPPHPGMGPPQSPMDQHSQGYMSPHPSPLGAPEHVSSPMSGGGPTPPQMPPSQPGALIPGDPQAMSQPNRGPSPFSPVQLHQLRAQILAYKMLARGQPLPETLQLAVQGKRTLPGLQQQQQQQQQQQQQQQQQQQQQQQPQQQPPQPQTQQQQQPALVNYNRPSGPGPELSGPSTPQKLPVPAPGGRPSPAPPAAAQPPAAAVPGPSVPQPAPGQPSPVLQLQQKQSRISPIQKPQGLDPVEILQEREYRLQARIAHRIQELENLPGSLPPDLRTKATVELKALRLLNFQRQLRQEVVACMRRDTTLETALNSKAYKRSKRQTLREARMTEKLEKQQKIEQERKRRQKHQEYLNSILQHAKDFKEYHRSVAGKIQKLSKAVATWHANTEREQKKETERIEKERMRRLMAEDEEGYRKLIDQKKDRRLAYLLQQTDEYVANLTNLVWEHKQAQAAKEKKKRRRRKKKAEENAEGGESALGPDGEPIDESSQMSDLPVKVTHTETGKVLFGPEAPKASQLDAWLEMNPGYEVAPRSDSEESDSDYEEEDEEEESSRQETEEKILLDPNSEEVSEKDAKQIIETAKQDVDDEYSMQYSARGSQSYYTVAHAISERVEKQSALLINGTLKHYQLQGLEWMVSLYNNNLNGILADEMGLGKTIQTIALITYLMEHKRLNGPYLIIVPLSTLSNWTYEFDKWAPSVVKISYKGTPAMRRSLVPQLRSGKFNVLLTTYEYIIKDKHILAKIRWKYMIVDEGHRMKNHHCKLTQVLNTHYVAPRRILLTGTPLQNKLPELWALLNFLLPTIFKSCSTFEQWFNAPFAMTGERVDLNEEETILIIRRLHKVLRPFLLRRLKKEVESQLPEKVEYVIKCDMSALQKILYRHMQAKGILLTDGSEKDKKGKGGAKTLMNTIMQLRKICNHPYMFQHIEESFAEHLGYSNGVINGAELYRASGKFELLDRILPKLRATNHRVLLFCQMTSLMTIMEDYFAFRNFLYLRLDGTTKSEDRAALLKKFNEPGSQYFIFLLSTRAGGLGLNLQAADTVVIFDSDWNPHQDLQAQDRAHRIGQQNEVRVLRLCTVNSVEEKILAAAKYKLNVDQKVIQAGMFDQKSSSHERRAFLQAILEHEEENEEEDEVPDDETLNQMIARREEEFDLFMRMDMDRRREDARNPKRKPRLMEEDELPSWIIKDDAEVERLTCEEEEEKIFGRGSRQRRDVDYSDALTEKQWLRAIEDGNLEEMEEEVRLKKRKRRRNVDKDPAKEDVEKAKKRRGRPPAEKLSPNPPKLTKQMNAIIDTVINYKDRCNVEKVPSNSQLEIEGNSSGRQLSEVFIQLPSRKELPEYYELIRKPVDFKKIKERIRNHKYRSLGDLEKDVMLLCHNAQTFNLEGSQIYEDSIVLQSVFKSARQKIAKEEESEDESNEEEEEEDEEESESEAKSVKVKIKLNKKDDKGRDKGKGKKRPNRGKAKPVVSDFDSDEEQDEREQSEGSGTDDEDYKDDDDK

Row | SMILES | IC50 [1, 2] [µM] | IC50 (FL-SMARCA4; [3]) [µM] | IC50 [1, 7] [µM] | IC50 (FL-SMARCA4; [8]) [µM] | further results
1 | CN1C(=O)CCC1C(=O)Nc1cc(F)c(=O)n(CCF)c1 (stereo not shown) [Compound 50a] | > 50 | > 50 |  |  | 
2 | O=C(Nc1cc(F)c(=O)n(CC(F)CO)c1)c1cc(Cl)c(Cl)s1 (stereo not shown) [Compound 50c] |  |  |  |  | IC50 [1, 4]: 2.61 µM; IC50 (FL-SMARCA4; [5]): 22.1 µM
3 | CSc1cc(NC(=O)c2cc(F)c(Cl)s2)cn(CC(F)F)c1=O [Compound 50d] |  |  |  |  | IC50 [1, 6]: 34.6 µM; IC50 (FL-SMARCA4; FL-SMARCA4 IC50): > 50 µM
4 | CCn1cc(NC(=O)c2cc(I)cn2C)ccc1=O [Compound 51] |  |  | 46.4 | > 50 | 
5 | CN1CC(C(=O)Nc2cc(F)c(=O)n(CCF)c2)CC1=O (stereo not shown) [Compound 51a] | > 50 | > 50 |  |  | 
6 | Cn1ccnc1-c1cc(NC(=O)c2sc(C(F)(F)F)cc2Cl)cn(CC(F)F)c1=O [Compound 51c] |  |  |  |  | IC50 [1, 4]: > 50 µM; IC50 (FL-SMARCA4; [5]): > 50 µM
7 | O=C(Nc1cc(F)c(=O)n(CC(F)F)c1)c1nc(Cl)c[nH]1 [Compound 51d] |  |  |  |  | IC50 [1, 6]: > 50 µM; IC50 (FL-SMARCA4; FL-SMARCA4 IC50): > 50 µM
8 | CCn1cc(NC(=O)c2ccc(C)n2C(F)F)ccc1=O [Compound 52] |  |  | > 50 | > 50 | 
9 | O=C(Nc1cc(F)c(=O)n(CCF)c1)N1CCCC1 [Compound 52a] | > 50 | > 50 |  |  | 
10 | CNCCn1cc(NC(=O)c2cc(F)c(Cl)s2)cc(F)c1=O [Compound 52c] |  |  |  |  | IC50 [1, 4]: > 50 µM; IC50 (FL-SMARCA4; [5]): > 50 µM
11 | O=C(Nc1cc(F)c(=O)n(CC(F)F)c1)c1cc(Cl)c(C#CCO)s1 [Compound 52d] |  |  |  |  | IC50 [1, 6]: 34 µM; IC50 (FL-SMARCA4; FL-SMARCA4 IC50): > 50 µM
12 | Cn1c(C(=O)Nc2ccc(=O)n(CC(F)(F)F)c2)cc(Cl)c1Cl [Compound 53] |  |  | 1.48 | 16.7 | 
13 | O=C(Nc1cc(F)c(=O)n(CCF)c1)N1CCn2ccnc2C1 [Compound 53a] | > 50 | > 50 |  |  | 
14 | CNCCCn1cc(NC(=O)c2cc(F)c(Cl)s2)cc(F)c1=O [Compound 53c] |  |  |  |  | IC50 [1, 4]: > 50 µM; IC50 (FL-SMARCA4; [5]): > 50 µM
15 | O=C(Nc1cc(F)c(=O)n(CC(F)F)c1)c1cc(Cl)c(C#Cc2cccnc2)s1 [Compound 53d] |  |  |  |  | IC50 [1, 6]: > 50 µM; IC50 (FL-SMARCA4; FL-SMARCA4 IC50): > 50 µM
16 | O=C(Nc1ccc(=O)n(Cc2ccccc2)c1)c1ccc(Br)s1 [Compound 54] |  |  | > 50 | > 50 | 
17 | CN1CCN(C(=O)Nc2cc(F)c(=O)n(CCF)c2)CC1=O [Compound 54a] | > 50 | > 50 |  |  | 
18 | CCn1cc(NC(=O)c2c[nH]c(C)c2)ccc1=O [Compound 55] |  |  | > 50 | > 50 | 
19 | O=C(Nc1cc(F)c(=O)n(CCF)c1)c1ncccn1 [Compound 55a] | > 50 | > 50 |  |  | 

Row | SMILES | IC50 [1, 2] [µM] | IC50 (FL-SMARCA4; [3]) [µM] | IC50 [1, 7] [µM] | IC50 (FL-SMARCA4; [8]) [µM] | further results
20 | CCn1cc(NC(=O)c2ncc(Cl)s2)ccc1=O [Compound 56] |  |  | > 50 | > 50 | 
21 | O=C(Nc1cc(F)c(=O)n(CCF)c1)c1ccc(Cl)cn1 [Compound 56a] | > 50 | > 50 |  |  | 
22 | CCn1cc(NC(=O)c2cc(Cl)c(Cl)n2Cc2ccccc2)ccc1=O [Compound 57] |  |  | > 50 | > 50 | 
23 | CCn1cc(NC(=O)c2cccc(C(F)(F)F)n2)ccc1=O [Compound 57a] | > 50 | > 50 |  |  | 
24 | Cn1c(C(=O)Nc2ccc(=O)n(CCF)c2)cc(Cl)c1Cl [Compound 58] |  |  | 1.3 | 13.6 | 
25 | CCn1cc(NC(=O)c2ccc(C(F)(F)F)cn2)ccc1=O [Compound 58a] | > 50 | > 50 |  |  | 
26 | CCCn1c(C(=O)Nc2ccc(=O)n(CC)c2)cc(Cl)c1Cl [Compound 59] |  |  | > 50 | > 50 | 
27 | CCn1cc(NC(=O)c2cc(C(F)(F)F)ccn2)ccc1=O [Compound 59a] | > 50 | > 50 |  |  | 
28 | CCn1cc(NC(=O)c2cc(Cl)c(Cl)n2CCF)ccc1=O [Compound 60] |  |  | 16.7 | 34.7 | 
29 | O=C(Nc1cc(F)c(=O)n(CCF)c1)N1CCC(Cl)=C(Cl)C1 [Compound 60a] | 14.3 | 46.7 |  |  | 
30 | CCn1cc(NC(=O)c2cc(Cl)c(Cl)n2C(C)C)ccc1=O [Compound 61] |  |  | > 50 | > 50 | 
31 | CCN(CC)c1nc2sc(C(=O)Nc3cc(F)c(=O)n(CCF)c3)cc2s1 [Compound 61a] | > 50 | > 50 |  |  | 
32 | CCn1cc(NC(=O)c2cc(Cl)c(Cl)n2C2CC2)ccc1=O [Compound 62] |  |  | > 50 | > 50 | 
33 | COc1ccc2nc(C(=O)Nc3cc(F)c(=O)n(CCF)c3)sc2c1 [Compound 62a] | 44 | 48.2 |  |  | 
34 | CCn1cc(NC(=O)c2nc(Cl)cs2)ccc1=O [Compound 63] |  |  | > 50 | > 50 | 
35 | CCn1cc(NC(=O)c2nc(Cl)c(Cl)s2)ccc1=O [Compound 64] |  |  | > 50 | > 50 | 
36 | O=C(Nc1cc(F)c(=O)n(CCF)c1)c1cc2n(n1)CCNC2=O [Compound 64a] | > 50 | > 50 |  |  | 
37 | CCn1cc(NC(=O)c2cc(C)c(Cl)s2)ccc1=O [Compound 65] |  |  | 28.4 | > 50 | 
38 | COc1ccc2cc(C(=O)Nc3cc(F)c(=O)n(CCF)c3)[nH]c2c1 [Compound 65a] | 4.91 | 27 |  |  | 

Row | SMILES | IC50 [1, 2] [µM] | IC50 (FL-SMARCA4; [3]) [µM] | IC50 [1, 7] [µM] | IC50 (FL-SMARCA4; [8]) [µM] | further results
39 | CCn1cc(NC(=O)c2cc(Cl)c(Cl)n2-c2ccccc2)ccc1=O [Compound 66] |  |  | > 50 | > 50 | 
40 | O=C(Nc1cc(F)c(=O)n(CCF)c1)c1cc2cncnc2[nH]1 [Compound 66a] | 32.1 | > 50 |  |  | 
41 | CCCn1cc(NC(=O)c2cc(Cl)c(Cl)n2C)ccc1=O [Compound 68] |  |  | 8.55 | > 50 | 
42 | O=C(Nc1cc(F)c(=O)n(CCF)c1)c1ccc2c(c1)CNC2=O [Compound 68a] | > 50 | > 50 |  |  | 
43 | CCn1cc(NC(=O)c2cnc(Cl)s2)ccc1=O [Compound 69] |  |  | 2.52 | 11.7 | 
44 | O=C(Nc1cc(F)c(=O)n(CC(F)F)c1)c1cnc(C(F)(F)F)c(F)c1 [Compound 69a] | 1.53 | 8.48 |  |  | 
45 | O=C(Nc1cc(F)c(=O)n(CC(F)F)c1)c1cc(C#CC2CN(CC(F)(F)F)C2)c(Cl)s1 [Compound 69c] |  |  |  |  | IC50 [1, 4]: 1 µM; IC50 (FL-SMARCA4; [5]): 3.77 µM
46 | CCn1cc(NC(=O)c2cc(Cl)n(C)c2)ccc1=O [Compound 70] |  |  | 16.7 | > 50 | 
47 | CNCCn1cc(NC(=O)c2cc(Cl)c(Cl)n2C)ccc1=O [Compound 71] |  |  | > 50 | > 50 | 
48 | CCn1cc(N(C)C(=O)c2cc(Cl)c(Cl)n2C)ccc1=O [Compound 71a] | 2.72 | 39.6 |  |  | 
49 | CCn1cc(NC(=O)c2nnc(Cl)s2)ccc1=O [Compound 72] |  |  | 33.2 | > 50 | 
50 | CCn1cc(NC(=O)c2cc(Cl)c(C)s2)ccc1=O [Compound 73] |  |  | 11.5 | 35.6 | 
51 | CCn1cc(NC(=O)c2cc(OC)c(Cl)s2)ccc1=O [Compound 74] |  |  | 17.2 | 31.5 | 
52 | O=C(Nc1ccc(=O)n(CC(F)(F)F)c1)c1cc(Cl)c(Cl)s1 [Compound 75] |  |  | 0.437 | 1.52 | 
53 | CC(C)Cn1cc(NC(=O)c2cc(Cl)c(Cl)s2)ccc1=O [Compound 76] |  |  | > 50 | > 50 | 
54 | O=C(Nc1cc(F)c(=O)n(CC(F)F)c1)c1nsc(Cl)n1 [Compound 76c] |  |  |  |  | IC50 [1, 4]: 24.1 µM; IC50 (FL-SMARCA4; [5]): > 50 µM
55 | CCn1cc(C(=O)Nc2ccc(Br)s2)ccc1=O [Compound 77] |  |  | > 50 | > 50 | 
56 | O=C(Nc1cc(F)c(=O)n(CC(F)F)c1)c1cc(C2CN(c3ccncc3)C2)c(Cl)s1 [Compound 77c] |  |  |  |  | IC50 [1, 4]: 6.56 µM; IC50 (FL-SMARCA4; [5]): 30.5 µM

From patent US20220356174A1, “PYRIDIN-2-ONE COMPOUNDS USEFUL AS SMARCA2 ANTAGONISTS” (Epizyme, Inc., priority 2018, published 2022)
